The values that follow come from article PMC7389528, “Anti-tubercular derivatives of rhein require activation by the monoglyceride lipase Rv0183” (The Cell Surface, 2020).

In brackets after ≈: the same amount, converted by molar mass. Where two headings read alike, the source gives them in different places.

One data set has as its system Vero cells. Briefly: cells. Type of data set: cell-based. As to conditions: Chlorocebus sabaeus, MTT, cytotoxicity.
Another data set relates to Mtb H37Rv. Briefly: microbe, parasite or virus in culture. Type of data set: cell-based. The following applies: Mycobacterium tuberculosis.
Data set [1] can be described thus: Liver microsome stability assay, mouse. Type of data set: in vitro ADME, male CD-1 mouse. The following applies: MLM, with NADPH, after 30 min, 1 μM compound. Here is the method:
(§1) The assay was performed with liver microsomes from male CD-1 mouse (Xenotech) and pooled human (Bioreclamation). Compounds HTB-03, HTB-04 and HTB-05 were tested at 1 μM with a final concentration of microsomal protein of 1 mg/mL. The reaction was initiated by the addition of NADPH (1 mM), and samples were incubated for up to […] at 37 °C in a shaking incubator. The reaction was terminated at 0, 5, 15 and 30 min by the addition of ice-cold ACN/MeOH (50:50) spiked with internal standard. Samples were centrifuged at 4000 rpm at 4 °C for 15 min and the supernatants analyzed by LC-MS/MS. The assay evaluated the metabolic stability of compounds by measuring the amount of parent remaining to test compounds with or without NADPH cofactor. LC-MS/MS: AB Sciex 4500 Qtrap; Kinetex 2.6 μm C18 100 Å column (3.0 mm × 30 mm); mobile phase A, 0.1% formic acid in H2O; mobile phase B, 0.1% formic acid in ACN; flow rate, 0.8 mL/min; room temperature.
For orientation: Liver microsomes are a subcellular fraction often used to study metabolism.

The conditions of data set [2]: 50 mM Tris pH 7.5, 200 mM NaCl, no enzyme, 37 °C, 1 h.
Data set [3] is described as follows: Liver microsome stability assay, human. The data set is classed as in vitro ADME. As to conditions: HLM, with NADPH, after 30 min, 1 μM compound. Here is the method:
as §1

The test system of the next data set is Mtb. Set-up: method as in Gajadeera et al., 2015. The following applies: ref Gajadeera et al., 2015, cited from earlier work.
The conditions of data set [4]: 50 mM Tris pH 7.5, 200 mM NaCl, 2% DMSO.

With `CC(=O)Oc1cccc2c1C(=O)c1c(OC(C)=O)cc(C(=O)OC3C(C)CCCC3C)cc1C2=O` (stereo not shown) [HTB-06], it took 58.1 µM to reach half-maximal inhibition in the data set with Vero cells (IC50). Further, the MIC in the data set on Mtb H37Rv was 7.31 µM (≈ 3.5 µg/mL).
Turning to `COC(=O)c1cc(OC(C)=O)c2c(c1)C(=O)c1cccc(OC(C)=O)c1C2=O` [HTB-02], the IC50 (usually the concentration that inhibits the measured activity by half) in the data set with Vero cells is 15.5 µM. The same molecule registered an MIC in the data set on Mtb H37Rv of 5.13 µM (≈ 1.96 µg/mL).
With `O=C(OCCCCCl)c1cc(O)c2c(c1)C(=O)c1cccc(O)c1C2=O` [HTB-03], the results for the Substrate remaining in data set [1] and in data set [3] were 66.3% and 92.8%, respectively. For the same molecule, the IC50 with Vero cells is > 171 µM. The “stability in the assay conditions (TLC)” value in data set [2] was “appeared stable”. In the data set with Mtb H37Rv, this molecule gave an MIC of 2.56 µM (≈ 0.959 µg/mL).
As for `COC(=O)c1cc(O)c2c(c1)C(=O)c1cccc(O)c1C2=O` [HTB-01], in the data set with Vero cells, the IC50 is > 215 µM. Further, the MIC in the data set with Mtb H37Rv came to 6.37 µM (≈ 1.9 µg/mL).
Turning to `NNC(=O)c1ccncc1` [INH, isoniazid, reference compound], the MIC in the data set with Mtb H37Rv was 0.26 µM (≈ 0.0357 µg/mL).
Regarding `O=C(O)c1cc(O)c2c(c1)C(=O)c1cccc(O)c1C2=O` [Rhein, rhein], the half-inhibitory concentration (IC50) in the data set with Vero cells was found to be 182 µM. In addition, the anti-tubercular activity result in the data set on Mtb is “does not exhibit anti-tubercular activity”; with Mtb (listed as rhein) it was “does not inhibit Mtb”. Further, the MIC against Mtb H37Rv was determined as 106 µM (≈ 30.2 µg/mL).
On to `CC1CCCC(C)C1OC(=O)c1cc(O)c2c(c1)C(=O)c1cccc(O)c1C2=O` (stereo not shown) [HTB-05], for which the Substrate remaining is given as 42.9% in data set [1] and 67.8% in data set [3]. Further, the IC50 in the data set with Vero cells is > 162 µM. In the data set on Mtb H37Rv, this molecule registered an MIC of 3.9 µM (≈ 1.54 µg/mL).
In the case of `CC(=O)Oc1cccc2c1C(=O)c1c(OC(C)=O)cc(C(=O)OCCCCCl)cc1C2=O` [HTB-04], the Substrate remaining stood at 79.8% in data set [1] and 82.4% in data set [3]. This molecule gave an IC50 in the data set with Vero cells of 84 µM. Besides, in data set [4], the “solubility in the assay conditions” value was “limited solubility”. Further, the MIC with Mtb H37Rv came to 3.55 µM (≈ 1.63 µg/mL).
In turn, `CC(=O)Oc1cccc2c1C(=O)c1c(OC(C)=O)cc(C(=O)O)cc1C2=O` [Diacerein, diacerein, reference compound] showed an IC50 in the data set on Vero cells of 161 µM. Also, the “stability in the assay conditions (TLC)” value in data set [2] is on record as “degraded to rhein”. In addition, in the data set with Mtb H37Rv, the MIC is > 86.9 µM.
